{"source": "patent US20240408074A1", "about": "“METHODS FOR THE TREATMENT AND PREVENTION OF NON-VIRAL TICK-BORNE DISEASES AND SYMPTOMS THEREOF OF” (60 DEGREES PHARMACEUTICALS LLC, priority 2023, published 2024)", "origin": "cited, not measured here", "key": {"[1]": {"tested_on": "P. falciparum gametocytes", "conditions": "Example 5; single dose of primaquine combined with dihydroartemisinin/piperaquine, or dihydroartemisinin-piperaquine alone; cited from earlier work"}, "B. rodhaini": {"tested_on": "B. rodhaini", "conditions": "cited from earlier work"}, "[2]": {"conditions": "600 mg over three days then 200 mg weekly for up to one year; reversible, not clinically significant; cited from earlier work"}, "Plasmodium vivax": {"tested_on": "Plasmodium vivax", "conditions": "400 mg/day for three days, cited from earlier work"}, "Plasmodium falciparum": {"tested_on": "Plasmodium falciparum", "conditions": "600 mg loading dose then 200 mg; parasite load three days after last dose; all control subjects developed parasitemia; cited from earlier work"}, "Trypanosoma brucei": {"tested_on": "Trypanosoma brucei", "conditions": "extracellular blood stage forms; cited from earlier work"}, "Leishmania major": {"tested_on": "Leishmania major", "conditions": "intracellular amastigote forms; cited from earlier work"}, "[3]": {"tested_on": "free-living gram-negative bacteria and free-living gram-positive bacteria", "conditions": "gram-negative versus gram-positive; cited from earlier work"}, "P. falciparum [4]": {"tested_on": "P. falciparum", "conditions": "in vivo; cited from earlier work"}, "B. microti": {"tested_on": "B. microti", "conditions": "one patient; prior rituximab; tafenoquine at approved malaria prevention dose as monotherapy for six weeks; cited from earlier work"}, "Babesia parasites": {"tested_on": "Babesia parasites", "conditions": "2 h; formation of large vacuoles; cited from earlier work"}, "[5]": {"tested_on": "Trypanosome brucei blood stage forms", "conditions": "exposure for 90 minutes; cited from earlier work"}, "Leptospira": {"tested_on": "Leptospira", "conditions": "exposure for as little as 30 min; cited from earlier work"}, "P. falciparum [6]": {"tested_on": "P. falciparum", "conditions": "250 mg/day, cited from earlier work"}, "[7]": {"conditions": "immunocompromised SCID mice, single dose of 20 mg/kg"}}}
{"smiles": "COc1cc(NC(C)CCCN)c2ncccc2c1", "note": "(stereo not shown) [primaquine]", "values": [{"measurement": "time until gametocytes non-infectious to mosquitoes at a level statistically lower than reference values", "setting": "[1]", "value": "two days post-dosing"}]}
{"smiles": "COc1cc(C)c2c(Oc3cccc(C(F)(F)F)c3)c(OC)cc(NC(C)CCCN)c2n1", "note": "(stereo not shown) [tafenoquine, N(4)-[2,6-Dimethoxy-4-methyl-5-[3-(trifluoromethyl)phenoxy]quinolin-8-yl]pentane-1,4-diamine]", "values": [{"measurement": "parasitemia", "setting": "B. rodhaini; Balb/c (immunocompetent) mice, single dose of 20 mg/kg", "value": "cleared parasitemia"}, {"measurement": "survival", "setting": "B. rodhaini; Balb/c (immunocompetent) mice, single dose of 20 mg/kg, infection uniformly lethal in untreated animals", "value": 100, "unit": "%"}, {"measurement": "death", "setting": "B. rodhaini; [7]", "value": "delayed not prevent"}, {"measurement": "parasitemia and relapses", "setting": "B. rodhaini; [7]", "value": "cleared initial parasitemia but did not prevent relapses"}, {"measurement": "vacuole formation in B. rodhaini blood stages", "setting": "B. rodhaini; mice, single dose of 20 mg/kg", "value": "induces the formation of large vacuoles"}, {"measurement": "antioxidant enzymes in B. rodhaini", "setting": "B. rodhaini; mice, single dose treatment", "value": "upregulated"}, {"measurement": "clearance and cure of Babesia", "setting": "B. rodhaini; one and three doses, immunocompromised mice and dogs", "value": "sufficient to clear and cure Babesia"}, {"measurement": "specific adverse events with increased risk", "setting": "[2]", "value": "gastrointestinal effects [mild to moderate] and cornea verticillata"}, {"measurement": "day by which all patients cleared blood stage parasites", "setting": "Plasmodium vivax; monotherapy", "value": "≤ 8", "unit": "days"}, {"measurement": "relapses during the follow up period", "setting": "Plasmodium vivax; patients for whom data was available", "value": "no relapses"}, {"measurement": "subjects who developed blood stage parasitemia", "setting": "Plasmodium falciparum", "value": "none"}, {"measurement": "potency of killing", "setting": "Trypanosoma brucei", "value": "< 4", "unit": "µM"}, {"measurement": "potency of killing", "setting": "Leishmania major", "value": "< 4", "unit": "µM"}, {"measurement": "activity against free-living bacteria", "setting": "[3]", "value": "much less active against free-living gram-negative bacteria than free-living gram-positive bacteria"}, {"measurement": "activity against the blood stages of P. falciparum", "setting": "P. falciparum [4]", "value": "quite effective"}, {"measurement": "outcome of treatment in the patient", "setting": "B. microti", "value": "cured"}]}
{"smiles": "OO", "note": "[hydrogen peroxide]", "values": [{"measurement": "concentration that kills Babesia parasites in vitro", "setting": "Babesia parasites", "value": 100, "unit": "µM"}, {"measurement": "concentration that kills blood stage forms", "setting": "[5]", "value": "approximately 140 microM"}, {"measurement": "concentration that killed various serovars", "setting": "Leptospira", "value": "< 180", "unit": "µM"}]}
{"smiles": "CC[C@H]1OC(=O)[C@H](C)[C@@H](O[C@H]2C[C@@](C)(OC)[C@@H](O)[C@H](C)O2)[C@H](C)[C@@H](O[C@@H]2O[C@H](C)C[C@H](N(C)C)[C@H]2O)[C@](C)(O)C[C@@H](C)CN(C)[C@H](C)[C@@H](O)[C@]1(C)O", "note": "[Azithromycin]", "values": [{"measurement": "Protective Efficacy (%) Relative to Placebo, PF/Non-immune or Malaria-naïve", "setting": "P. falciparum [6]; non-immune or malaria-naïve (Taylor)", "value": "72% (Taylor)"}, {"measurement": "Protective Efficacy (%) Relative to Placebo, Pf/Semi-Immune", "setting": "P. falciparum [6]; semi-immune (Anderson)", "value": "83% (Anderson)"}]}
